Experiment [1] relates to eNOS-/- mouse VSMCs (vascular smooth muscle cells). The experiment is described as follows: ALP activity, inhibition of osteogenic differentiation of VSMCs. In kind it is cell-based. The arrangement: dose or concentration left out as unconfirmed. Particulars: of each inhibitor for 7 days, 48-well plate, compared to negative control group not treated with the DPP-4 inhibitor. The protocol: (§1) The aortas, extracted from the eNOS-/- mice and the wild-type mice together with the hearts in Example 2, were washed in serum-free M199 (Cellgro), cut to small pieces, and then cultured in M199 containing 20% fetal calf serum and 3 mg/mL collagenase (Sigma) in a water bath at 37°C for 3 hours. […] The isolated vascular smooth muscle cells were seeded at a concentration of 30%, and after 24 hours, the medium was replaced with osteogenic basal medium (Osteogenic SingleQuots, Lonza, USA). The medium was replaced at 3-day intervals during 28 days of culture.
In order to examine the effects of DPP-4 inhibitors other than sitagliptin on the inhibition of valvular calcification, the effects of treatment with various kinds of DPP-4 inhibitors on the inhibition of osteogenic differentiation of eNOS-/- mouse VSMCs (vascular smooth muscle cells) were evaluated.
eNOS-/- mouse VSMCs cultured in a 48-well plate were treated with […] of each of alogliptin, evogliptin, linaglipin, saxagliptin and vildagliptin for 7 days, and ALP activity in the cells was measured. As a result, ALP activity inhibition of 50% or lower compared to that in a negative control group not treated with the DPP-4 inhibitor was observed.

In experiment [2] the test system is DPP-4. The following applies: stated as known; cited from earlier work.
Experiment [3] concerns eNOS-/- mice. The experiment is described as follows: Osteosense680 imaging of aortic calcification / osteogenic activity after oral administration. Type of experiment: in vivo. Particulars: oral sitagliptin 15 mg/kg/day for 12 weeks, Osteosense680 imaging (FIGS. 9a, 9b). The protocol: (§2) C57BL/6J eNOS-/- (endothelial nitric oxide synthase knockout) mice (8-week old, n = 10, The Jackson Laboratory, Bar Harbor, Me, USA) and C57BL/6J wild-type mice (8-week old, wide type, WT, n = 10) were used. After purchase, the mice were fed with standard rodent feed up to 3 months of age, and administered with saline or sitagliptin (15 mg/kg/ day, Merck & Co., Inc.) for 12 weeks.
To detect osteogenic activity in the eNOS-/- mice, a bisphosphonate-conjugated imaging agent (Osteosense680, VisEn Medical Inc.) was injected via the tail vein. Osteosense680 binds to a calcified site (particularly hydroxyapatite) in vivo and acts as an imaging agent to detect osteoblast activity. The mice were euthanized, and then the whole body or isolated aortas were imaged using OptixMX3 (ART Advanced Research Technologies, Inc).

Experiment [4] deals with aortic valves from the eNOS-/- mice. The experiment is described as follows: von Kossa (VK) staining of aortic valve sections. In kind it is in vivo. Particulars: eNOS-/- mice after administration of sitagliptin (FIGS. 10a, 10b). The protocol: Human aortic valve samples were fixed in 4% formalin solution for 24 hours, and then embedded in paraffin and sectioned to a thickness of 4 µm. In order to observe calcium deposition in the paraffin-embedded aortic valve and the cardiac basal segment, Von Kossa (VK) staining and Alizarin red (AR) staining were performed. For Von Kossa staining, the aortic valve fixed in formalin was washed with distilled water, and then exposed to 5% water-soluble AgNO3 and intense light at room temperature for 60 minutes.
as §2

For experiment [5], the system named is Human aortic valvular interstitial cells (VICs). The experiment is described as follows: Osteoblast differentiation (osteogenic ability) of human valvular interstitial cells. Type of experiment: cell-based. Particulars: human VICs treated with DPP-4 plus sitagliptin (FIG. 11). The protocol:
Using human VICs, the role of DPP-4 in osteoblast differentiation was analyzed.
Human VICs were isolated from aortic valve leaflets according to a conventional cell isolation method, and VIC cells at passage 2 to 10 were used. The VIC cells were incubated with DPP-4 (R & D), sitagliptin or DETA-NONOate (Enzo Life Sciences).

In experiment [6] the test system is DPP-4. Nature of the experiment: DPP-4 mRNA and protein expression in VSMCs (RT-PCR, immunoblot). In kind it is cell-based, mouse. The protocol:
as §1
In this Example, vascular smooth muscle cells obtained according to the method of Example 3 were treated with DETA-NONOate (DETA-NO) that is an NO donor.

Experiment [7] has as its system DPP-4 promoter. The experiment is described as follows: DPP-4 promoter activity in VSMCs (luciferase reporter). Type of experiment: cell-based. Particulars: wild-type or eNOS-/- mouse VSMCs (FIG. 7c). The protocol: To obtain more direct evidence for the regulatory function of NO in a decrease in DPP-4 expression, it was determined whether DPP-4 promoter activity would be regulated by NO.
First, VSMCs were cultured in a 6-well plate to reach a confluency of 80%. Using Lipofectamine2000 (Life Technology), a DPP-4 reporter containing a normal or mutated NF-κB binding site was cloned into a pGL3-basic vector (Promega), and the cells were transfected with the vector. After 24 hours, firefly and Renilla luciferase activities in the cells were measured using a Dual-Glo luciferase assay system, (Promega). The firefly luciferase activity was normalized with the Renilla luciferase activity.
Background: In a reporter assay the amount or activity of a reporter protein is the signal.

Experiment [8] has as its system NF-κB. Nature of the experiment: NF-κB activity in VSMCs. Type of experiment: cell-based. The following applies: wild-type or eNOS-/- mouse VSMCs (FIG. 7d). The source says: NF-κB activity in VSMCs is inhibited by NO. It was shown that NF-κB activity was higher in eNOS-/- mouse VSMCs than in wild-type mouse VSMCs, and this activity was reduced by treatment with DETA-NO (FIG. 7d). Because the DPP4 promoter has a putative NF-κB binding site, the present inventors determined whether NF-κB activity could directly regulate DPP-4 promoter activity.

A value given as a limit tells only on which side of the number the result lay.

With `N#C[C@@H]1CCCN1C(=O)CNC12CC3CC(CC(O)(C3)C1)C2` [vildagliptin], in experiment [1], the ALP activity inhibition is ≤ 50%.

Consider `COC(=O)[C@@H](N)CCCNC(=N)N[N+](=O)[O-]` [L-NAME, Nω-nitro-L-arginine methyl ester], for which, in experiment [2], the “DPP-4 expression in the aorta” value is “significantly increases DPP-4 expression in the aorta”.

Consider `CC(C)(C)OC[C@@H]1C(=O)NCCN1C(=O)C[C@H](N)Cc1cc(F)c(F)cc1F` [evogliptin], for which the ALP activity inhibition in experiment [1] is on record as ≤ 50%.

Consider `Cn1c(=O)cc(N2CCC[C@@H](N)C2)n(Cc2ccccc2C#N)c1=O` [alogliptin], for which the ALP activity inhibition in experiment [1] is on record as ≤ 50%.

Regarding `N[C@@H](CC(=O)N1CCn2c(nnc2C(F)(F)F)C1)Cc1cc(F)c(F)cc1F` [sitagliptin], the “aortic calcification in the living mice” value in experiment [3] is given as “reduced aortic calcification”. Moreover, in experiment [4], the “aortic calcification in VK-stained sections of the aortic valves” value is given as “aortic calcification can be inhibited”. Also, the “DPP-4-induced increase of the osteogenic ability of VICs” value in experiment [5] was “eliminated”.

With `CC#CCn1c(N2CCC[C@@H](N)C2)nc2c1c(=O)n(Cc1nc(C)c3ccccc3n1)c(=O)n2C` [linaglipin], in experiment [1], the ALP activity inhibition is ≤ 50%.

For the molecule `NCCN(CCN)[N+]([O-])=NO` [DETA-NO, DETA-NONOate], the “expression of DPP-4 mRNA in the VSMCs” value in experiment [6] (RT-PCR after 24 hours of treatment with DETA-NO (FIG. 7a)) is “decreased”. In experiment [6] (immunoblot after 48 hours of treatment with DETA-NO (FIG. 7b)), the “expression of DPP-4 protein in the VSMCs” value is recorded as “also decreased”. For the same molecule, the DPP-4 promoter activity result in experiment [7] is given as “inhibited by treatment with DETA-NO in a concentration-dependent manner”. The NF-κB activity entry in experiment [8] was “reduced”.

In the case of `N#C[C@@H]1C[C@@H]2C[C@@H]2N1C(=O)[C@@H](N)C12CC3CC(CC(O)(C3)C1)C2` [saxagliptin], the ALP activity inhibition in experiment [1] is reported as ≤ 50%.

Source of the values: patent EP3263134A1, “COMPOSITION FOR PREVENTING OR TREATING VALVE CALCIFICATION, CONTAINING DPP-4 INHIBITOR” (The Asan Foundation, priority 2015, dated 2016).
